{"source": "paper PMC9620171", "about": "(Journal of Medicinal Chemistry, 2022)", "key": {"[1]": {"experiment": "Physicochemical properties of pritelivir mesylate monohydrate", "settings": "50 for the classification system"}, "[2]": {"settings": "compared with other salts and salt/hydrates; cited from earlier work"}, "HSV [3]": {"system": "HSV", "settings": "lead optimization; ref 11 and data on file; cited from earlier work"}, "[4]": {"settings": "lead optimization; ref 11 and data on file; cited from earlier work"}, "HSV-2 [5]": {"system": "HSV-2", "settings": "cited from earlier work; for recurrence rate per 10-day period: early treatment days 0–4, follow-up up to 85 days, control 1.0; for time to return to a disease score of zero: control 14 days"}, "HSV-2 [6]": {"system": "HSV-2", "settings": "day 3 to day 7 postinfection, cited from earlier work"}, "HSV-1 [7]": {"system": "HSV-1", "experiment": "Murine lethal challenge assay, intranasal HSV-1 infection", "assay_type": "in vivo, mice", "settings": "using molar doses"}, "HSV-2 [8]": {"system": "HSV-2", "experiment": "Murine lethal challenge assay, intranasal HSV-2 infection", "assay_type": "in vivo, mice", "settings": "using molar doses"}, "[9]": {"experiment": "Pharmacokinetics after oral administration, rat", "settings": "in vivo, 1 mg/kg, elimination half-life in rodents"}, "[10]": {"experiment": "Pharmacokinetics after oral administration, dog", "settings": "in vivo, 1 mg/kg"}, "[11]": {"experiment": "Pharmacokinetics after oral administration, human", "settings": "in vivo, 100 mg"}, "[12]": {"experiment": "Routes of elimination of pritelivir in humans", "assay_type": "in vivo", "settings": "yields pyridinyl phenyl acetic acid and amino thiazole sulfonamide"}, "[13]": {"system": "two human helicases, one nuclear and one located in the mitochondria", "experiment": "Inhibition of human helicases", "assay_type": "biochemical", "settings": "one nuclear and one mitochondrial human helicase"}, "[14]": {"system": "liver, heart muscle, kidney, macrophages, monocytes, T lymphocytes, fibroblasts, and neuronal cells", "experiment": "Cytotoxicity on a panel of different cell types", "assay_type": "cell-based"}, "[15]": {"system": "bacterial reversion and mammalian cell chromosome aberration", "experiment": "Genotoxicity, standard ICH battery", "assay_type": "cell-based", "settings": "in vitro; free base and mesylate monohydrate examined"}, "HSV [16]": {"system": "HSV", "settings": "rats; three daily oral doses, pritelivir 0.5 and 2 mg/kg, valacyclovir 45 and 135 mg/kg; cited from earlier work"}, "HSV-1 [17]": {"system": "HSV-1", "settings": "cited from earlier work; for effectiveness on lesion score and virus shedding: wild-type HSV-1, postinfection day 1 to day 4"}, "HSV-1 [18]": {"system": "HSV-1", "settings": "oral, start 72 h postinfection; cited from earlier work"}, "HSV-2 [19]": {"system": "HSV-2", "settings": "10 and 30 mg/kg twice a day, start 72 h postinfection; cited from earlier work"}, "HSV-1 [20]": {"system": "HSV-1", "settings": "24 h after heat stress; two oral doses of 50 mg/kg; controls 1.4 × 10^6; cited from earlier work"}, "HSV-1 [21]": {"system": "HSV-1", "settings": "cited from earlier work"}, "HSV [22]": {"system": "HSV", "settings": "pritelivir-resistant, plaque-purified virus, in vitro; cited from earlier work"}, "other herpesviruses": {"system": "other herpesviruses", "settings": "cited from earlier work"}, "[23]": {"system": "acyclovir resistant, mucocutaneous HSV infection", "settings": "preliminary data, cited from earlier work"}, "HSV [24]": {"system": "HSV", "settings": "four times daily swabbing; cited from earlier work"}, "[25]": {"settings": "after administration of its prodrug valacyclovir in experimental animals; cited from earlier work"}, "[26]": {"settings": "cited from earlier work"}}, "note": "Read-outs that look alike come from different tables or passages of the source.", "data": [{"smiles": "CS(=O)(=O)O.Cc1nc(N(C)C(=O)Cc2ccc(-c3ccccn3)cc2)sc1S(N)(=O)=O.O", "note": "[Pritelivir mesylate monohydrate]", "values": [{"measurement": "BCS class", "setting": "[1]", "value": "BCS class 2"}, {"measurement": "stability under forced degradation conditions", "setting": "[2]", "value": "highest stability"}]}, {"smiles": "CNS(=O)(=O)c1sc(N(C)C(=O)Nc2ccc(-c3ccccc3)cc2)nc1C", "note": "[Compound 3]", "values": [{"measurement": "in vivo activity / efficacy", "setting": "HSV [3]", "value": "superior in vivo efficacy than valacyclovir"}]}, {"smiles": "Cc1nc(N(C)C(=O)Cc2ccc(-c3ccccc3)cc2)sc1S(N)(=O)=O", "note": "[Compound 9]", "values": [{"measurement": "in vivo activity / efficacy", "setting": "HSV [3]", "value": "high in vitro and in vivo activity"}, {"measurement": "solubility", "setting": "[4]", "value": "solubility remained a challenging issue"}]}, {"smiles": "CC(C)[C@H](N)C(=O)OCCOCn1cnc2c(=O)nc(N)[nH]c21", "note": "[valacyclovir, reference compound]", "values": [{"measurement": "recurrence rate per 10-day period", "setting": "HSV-2 [5]; 100 mg/kg t.i.d. or 150 mg/kg b.i.d.", "value": 0.9}, {"measurement": "time to return to a disease score of zero", "setting": "HSV-2 [5]; 150 mg/kg b.i.d., delayed treatment", "value": 12, "unit": "days"}, {"measurement": "effect on viral shedding", "setting": "HSV-2 [5]; valacyclovir 150 mg/kg b.i.d., vaginal swabs", "value": "no discernible effect"}, {"measurement": "mortality", "setting": "HSV-2 [6]; oral 60 mg/kg t.i.d. (lower dose level)", "value": 100, "unit": "%"}]}, {"smiles": "Cc1nc(N(C)C(=O)Cc2ccc(-c3ccccn3)cc2)sc1S(N)(=O)=O", "note": "[Compound 16, pritelivir]", "values": [{"measurement": "potency factor vs ganciclovir", "setting": "HSV-1 [7]", "value": 8, "unit": "fold"}, {"measurement": "potency factor vs ganciclovir", "setting": "HSV-2 [8]", "value": 3, "unit": "fold"}, {"measurement": "half-life", "setting": "[9]", "value": "≥ 5", "unit": "h"}, {"measurement": "half-life", "setting": "[10]", "value": "≥ 22", "unit": "h"}, {"measurement": "half-life", "setting": "[11]", "value": "60 to 70", "unit": "h"}, {"measurement": "share of elimination by nonenzymatic hydrolysis", "setting": "[12]", "value": "more than 50%"}, {"measurement": "inhibition of human helicases", "setting": "[13]", "value": "Neither of these enzymes was inhibited"}, {"measurement": "cytotoxicity", "setting": "[14]", "value": "lack of cytotoxicity"}, {"measurement": "genotoxic potential", "setting": "[15]", "value": "nongenotoxic"}, {"measurement": "in vivo activity / efficacy", "setting": "HSV [3]", "value": "excellent in vivo activity"}, {"measurement": "efficacy compared with valacyclovir", "setting": "HSV [16]", "value": "superior efficacy"}, {"measurement": "efficacy against HSV-1 mutant without wild-type mixture", "setting": "HSV-1 [17]; mutant alone, even at 60 mg/kg", "value": "practically ineffective"}, {"measurement": "outcome of high-dose extended treatment", "setting": "HSV-1 [17]; pritelivir-resistant HSV-1 strain, 60 mg/kg for 8 days", "value": "prevented mortality and weight loss"}, {"measurement": "influence on lesion score and virus shedding", "setting": "HSV-1 [17]; pritelivir-resistant HSV-1 strain, oral 10 mg/kg, day 1 to day 4", "value": "only marginal"}, {"measurement": "effectiveness on lesion score and virus shedding", "setting": "HSV-1 [17]; oral 5 mg/kg", "value": "largely"}, {"measurement": "effectiveness on lesion score and virus shedding", "setting": "HSV-1 [17]; oral 10 mg/kg", "value": "fully"}, {"measurement": "b.i.d. dose at which 3-week mortality was already decreased", "setting": "HSV-1 [18]", "value": 0.3, "unit": "mg/kg"}, {"measurement": "3-week mortality", "setting": "HSV-2 [19]", "value": "no mortality"}, {"measurement": "recurrence rate per 10-day period", "setting": "HSV-2 [5]; 20 mg/kg b.i.d.", "value": 0.4}, {"measurement": "recurrence rate per 10-day period", "setting": "HSV-2 [5]; 30 mg/kg b.i.d.", "value": 0.3}, {"measurement": "decrease of viral shedding compared to controls", "setting": "HSV-2 [5]; day 2 postinfection, vaginal swabs, 20 mg/kg b.i.d.", "value": "3 orders of magnitude"}, {"measurement": "viral load in sacral dorsal root ganglia", "setting": "HSV-2 [5]; days 7, 25 and 85 postinfection, vs valacyclovir and control groups", "value": "considerably lower"}, {"measurement": "time to return to a disease score of zero", "setting": "HSV-2 [5]; oral 20 mg/kg b.i.d., day 4 to day 14 postinfection", "value": 7, "unit": "days"}, {"measurement": "recurrence of lesion score after treatment", "setting": "HSV-2 [6]; oral 15 or 60 mg/kg t.i.d.", "value": "no such recurrence was observed"}, {"measurement": "mean viral genome copy number in trigeminal ganglia", "setting": "HSV-1 [20]", "value": "2.4 × 10^2"}, {"measurement": "EC50", "setting": "HSV-1 [21]; read-out: in vitro EC50, wild-type HSV-1, wild-type", "value": 30, "unit": "nM"}, {"measurement": "higher in vitro ED50 of pritelivir-resistant HSV-1 strain", "setting": "HSV-1 [21]; resistant strain vs wild-type", "value": 27, "unit": "fold"}, {"measurement": "frequency of resistant HSV mutants", "setting": "HSV [22]", "value": "0.5 to 4.5 × 10^–6"}, {"measurement": "activity against other herpesviruses", "setting": "other herpesviruses", "value": "only weak (if any) activity"}, {"measurement": "solubility", "setting": "[4]", "value": "much better solubility"}, {"measurement": "subjects whose lesions improved but did not heal completely", "setting": "[23]; of the 23 subjects treated", "value": 4, "unit": "subjects"}, {"measurement": "tolerability", "setting": "[23]", "value": "well tolerated without significant adverse effects"}, {"measurement": "efficacy vs valacyclovir in viral shedding rate and days with lesions", "setting": "HSV [24]", "value": "superior efficacy vs valacyclovir"}]}, {"smiles": "Cc1nc(N(C)C(=O)Cc2ccc(-c3cccnc3)cc2)sc1S(N)(=O)=O", "note": "[Compound 15]", "values": [{"measurement": "solubility", "setting": "[4]", "value": "less soluble"}]}, {"smiles": "Nc1nc2c(ncn2COCCO)c(=O)[nH]1", "note": "[acyclovir]", "values": [{"measurement": "acyclovir bioavailability", "setting": "[25]", "value": "58–84%"}]}, {"smiles": "Cc1nc(N(C)C(=O)Cc2ccc(-n3cccn3)cc2)sc1S(N)(=O)=O", "note": "[Compound 13]", "values": [{"measurement": "solubility", "setting": "[4]", "value": "improved solubility"}]}, {"smiles": "Nc1nc2c(ncn2CCC(CO)CO)c(=O)[nH]1", "note": "[penciclovir]", "values": [{"measurement": "half-life of penciclovir", "setting": "[26]; after dosing with the prodrug famciclovir", "value": "2.0 to 2.5", "unit": "h"}, {"measurement": "bioavailability", "setting": "[26]; human, penciclovir via famciclovir", "value": "60–77%"}]}, {"smiles": "Cc1nc(N(C)C(=O)Cc2ccc(-c3c(C)noc3C)cc2)sc1S(N)(=O)=O", "note": "[Compound 14]", "values": [{"measurement": "solubility", "setting": "[4]", "value": "improved solubility"}]}]}
